Measurements published in patent US12070477B2, “Lactobacillus sp. strain having ability to inhibit growth of vaginal pathogenic microorganisms” (KoBioLabs, Inc., priority 2015, dated 2024).

Tested on: Gardnerella vaginalis
Experiment: Gardnerella vaginalis-infected mouse vaginitis model, microbiome analysis after vaginal administration
Type: in vivo, female mice (BALB/c mice)
Procedure: The hormone control and estrous cycle were induced by intraperitoneally injecting 0.5 mg of beta-esteradiol 3-benzonate to female mice (BALB/c mice). After three days, they were directly infected with Gardnerella vaginalis in the vagina at a concentration of 1×10^7 CFU per mouse to establish a vaginitis animal model. Thereafter, four kinds of Lactobacillus isolates corresponding to 10^8 to 10^9 CFU per mouse were vaginally administered (7 mice per group). On day 2, the total bacterial DNA was extracted from the vaginal samples washed with 0.1 mL of PBS (Phosphate Buffered Saline) and microbiome community analysis was performed to measure the relative abundance of Gardnerella vaginalis and other vaginal microbiota. […] The analyzed sequences were subjected to microbiome analysis including taxon profile, α-diversity and β-diversity showing the difference in community structure between groups through Qiime pipeline, and the change in the amount of Gardnerella vaginalis pathogens upon the administration of Lactobacillus isolates was evaluated by calculating relative abundances (/% GV treatment group).

SMILES: Cc1ncc([N+](=O)[O-])n1CCO [MTZ, metronidazole]
- community structure of the vaginal microflora (Unweighted UniFrac distance) (compared to Gardnerella vaginalis-infected control group, after 2 days of administration): no change in the community structure
- Relative abundance (/% GV group) of Gardnerella vaginalis (vaginal administration after infection, day 2, 16S microbiome analysis, GV group = 100): 74.9 /% GV group
